# Measurements published in US8592483B2, “Method for treating schizophrenia” (Sucampo AG, priority 2011, dated 2013).
# Experiments:
# [1] = system: PCP-disrupted PPI response in rats; experiment: PCP-disrupted PPI response in rats (schizophrenia model), intravenous administration; type: in vivo, Male Wistar rats; conditions: PCP 1.5 mg/kg s.c.; for % PPI (Mean ± SEM): 0.5 mg/kg intravenous, 15 min before PPI (immediately before PCP), pre-pulse 60 dB, startle 110 dB; for effect on PCP-disrupted PPI response: intravenous administration 15 min before PPI
# Protocol: Male Wistar rats (n=135) (200-300 g) were used. Animals are housed at a standard temperature (22±1° C.) and in a light-controlled environment (lights on from 7 am to 8 pm) with ad libitum access to food and water. Animals are treated with Phencyclidine (PCP) at 1.5 mg/kg, s.c., and tested in Pre-Pulse Inhibition (PPI) 15 min later. Intravenous administration of Compound A ((−)-7-[(1R,2R)-2-(4,4-difluoro-3-oxooctyl)-5-oxocyclopentyl]heptanoic acid), Compound B ((+)-isopropyl (Z)-7-[(1R,2R,3R,5S)-3,5-dihydroxy-2-(3-oxodecyl)cyclopentyl]hept-5-enoate) and corresponding vehicle was done 15 min before PPI, which means each compound or vehicle was administered immediately before PCP injection.
# (§1) PPI tests were conducted in standard startle chambers (SR-LAB Startle Response system, San Diego Instruments, USA). Before the PPI testing, the animals were habituated to handling. On the day of PPI testing, the animals were placed in the chamber and allowed to habituate for a period of 300 s. After habituation period, the rats received 12 startle trials, 12 no-stimulus trials, and 12 trials of the pre-pulse/startle trials (3×12 trials). The startle trials consists of single 110 dB white noise burst lasting 20 ms. The PPI trials consist of a pre-pulse (20 ms burst of white noise with intensities of 60 dB) followed 100 ms later by a startle stimulus (110 dB, 20 ms white noise). During the no-stimulus trial, no startle noise is presented. The resulting movement of the rat in the startle chamber is measured during 100 ms after startle stimulus onset. Basal startle amplitude is determined as the mean amplitude of the 12 startle trials. % PPI is calculated according to the formula 100−100%×(PP/P110), in which PP is the mean of the 12 pre-pulse inhibition trials (i.e., for each individual pre-pulse intensity), and P110 is the basal startle amplitude. The animals are treated with PCP s.c. and then tested in PPI 15 min later.
# [2] = system: PCP-disrupted PPI response in rats; experiment: PCP-disrupted PPI response in rats, oral administration; type: in vivo, Male Wistar rats; conditions: PCP 1.5 mg/kg s.c.; for % PPI (Mean ± SEM): 0.3 mg/kg oral, 45 min before PPI (30 min before PCP), pre-pulse 63 dB, startle 110 dB; for effect on PCP-disrupted PPI response: oral administration 45 min before PPI
# Protocol: Male Wistar rats (n=135) (200-300 g) were used. Animals are housed at a standard temperature (22±1° C.) and in a light-controlled environment (lights on from 7 am to 8 pm) with ad libitum access to food and water. Animals are treated with Phencyclidine (PCP) at 1.5 mg/kg, s.c., and tested in Pre-Pulse Inhibition (PPI) 15 min later. Oral administration of Compound B ((+)-isopropyl (Z)-7-[(1R,2R,3R,5S)-3,5-dihydroxy-2-(3-oxodecyl)cyclopentyl]hept-5-enoate) and Compound C ((E)-7-[(1R,2R)-2-(4,4-difluoro-3-oxooctyl)-5-oxocyclopentyl]hept-2-enoic acid) and corresponding vehicle was done 45 min before PPI, which means each compound or vehicle was administered 30 min before PCP injection.
# as §1, with “63” for “60”
SMILES,% PPI (Mean ± SEM) [1] [%],effect on PCP-disrupted PPI response [1],% PPI (Mean ± SEM) [2] [%],effect on PCP-disrupted PPI response [2]
"CCCCCCCC(=O)CC[C@@H]1[C@@H](C/C=C\CCCC(=O)OC(C)C)[C@@H](O)C[C@H]1O [Compound B, (+)-isopropyl (Z)-7-[(1R,2R,3R,5S)-3,5-dihydroxy-2-(3-oxodecyl)cyclopentyl]hept-5-enoate]",40.5 ± 4.2,improved the PCP-disrupted PPI response,24.0 ± 5.3,improved the PCP-disrupted PPI response
"CCCCC(F)(F)C(=O)CC[C@H]1CCC(=O)[C@@H]1CCCCCCC(=O)O [Compound A, (−)-7-[(1R,2R)-2-(4,4-difluoro-3-oxooctyl)-5-oxocyclopentyl]heptanoic acid]",34.2 ± 3.9,improved the PCP-disrupted PPI response,,
"CCCCC(F)(F)C(=O)CC[C@H]1CCC(=O)[C@@H]1CCCC/C=C/C(=O)O [Compound C, (E)-7-[(1R,2R)-2-(4,4-difluoro-3-oxooctyl)-5-oxocyclopentyl]hept-2-enoic acid]",,,24.7 ± 5.0,improved the PCP-disrupted PPI response
